Test results reported in patent publication US20230013602A1, “NOVEL IMIDAZOPYRAZINE DERIVATIVES” (Hoffmann-La Roche Inc., priority 2018, published 2023).
Structures can show the parent of a compound that is named as a salt.

Each compound was assayed on Acinetobacter baumannii ATCC17961 (assay: Antimicrobial susceptibility testing, 90% growth inhibitory concentration (IC90) determination). Settings: 90% growth inhibitory concentration, Acinetobacter baumannii ATCC17961, Iso-Sensitest broth, OD 600 nm over 16 h; read-out: ATCC17961 IC90.
Type: cell-based
Protocol: The in vitro antimicrobial activity of the compounds was determined according to the following procedure:
The assay used a 10-points Iso-Sensitest broth medium to measure quantitatively the in vitro activity of the compounds against Acinetobacter baumannii ATCC 17978 and Acinetobacter baumannii ATCC17961.
Stock compounds in DMSO were serially twofold diluted (e.g. range from 50 to 0.097 μM final concentration) in 384 wells microtiter plates and inoculated with 49 μl the bacterial suspension in Iso-Sensitest medium to have a final cell concentration of ˜5×10^(5) CFU/ml in a final volume/well of 50 ul/well. Microtiter plates were incubated at 35+2° C.
Bacterial cell growth was determined with the measurement of optical density at X=600 nm each 20 minutes over a time course of 16 h. Growth inhibition was calculated during the logarithmic growth of the bacterial cells with determination of the concentration inhibiting 50% (IC50) and 90% (IC90) of the growth.
Table 1 provides the 90% growth inhibitory concentrations (IC90) in micromoles per liter of the compounds of present invention obtained against the strain Acinetobacter baumannii ATCC17978 and Acinetobacter baumannii ATCC17961.

Row | Compound | IC90
1 | CCc1cc(Nc2nccn3c(-c4ccc(OC)c(F)c4F)cnc23)ccc1C(=O)NC1CC1NC(=O)[C@@H]1C[C@@H](O)CN1 (mixture of isomers) [Example 73, (2S,4R)-N-[(cis-1SR,2RS)-2-[[4-[[3-(2,3-difluoro-4-methoxy-phenyl)imidazo[1,2-a]pyrazin-8-yI]amino]-2-ethyl-benzoyl]amino]cyclopropyl]-4-hydroxy-pyrrolidine-2-carboxamide] | 173 nM
2 | CCc1cc(Nc2nccn3c(-c4ccc(OC)c(F)c4F)cnc23)ccc1C(=O)NC12CC(N)(C1)C2 [Example 61, N-(3-aminobicyclo[1.1.1]pentan-1-yl)-4-((3-(2,3-difluoro-4-methoxyphenyl)imidazo[1,2-a]pyrazin-8-yl)amino)-2-ethylbenzamide dihydrochloride] | 259 nM
3 | CCc1cc(Nc2nccn3c(-c4ccc(OC)c(F)c4F)cnc23)ccc1C(=O)NC1CCN(C(=O)[C@@H](N)CCCNC(=N)N)CC1 [Example 44, N-(1-(L-arginyl)piperidin-4-yl)-4-((3-(2,3-difluoro-4-methoxyphenyl)imidazo[1,2-a]pyrazin-8-yl)amino)-2-ethylbenzamide bis(2,2,2-trifluoroacetate)] | 847 nM
4 | CCc1cc(Nc2nccn3c(-c4ccc(OC)c(F)c4F)cnc23)ccc1C(=O)NC1CCC1NC(=O)[C@@H]1C[C@@H](O)CN1 (mixture of isomers) [Example 69, (2S,4R)-N-(2-(4-((3-(2,3-difluoro-4-methoxyphenyl)imidazo[1,2-a]pyrazin-8-yl)amino)-2-ethylbenzamido)cyclobutyl)-4-hydroxypyrrolidine-2-carboxamide] | 246 nM
5 | CCc1cc(Nc2nccn3c(-c4ccc(OC)c(F)c4F)cnc23)ccc1C(=O)N[C@@H]1C[C@H]1N (racemic) [Example 58, rac-N-((1R,2R)-2-aminocyclopropyl)-4-((3-(2,3-difluoro-4-methoxyphenyl)imidazo[1,2-a]pyrazin-8-yl)amino)-2-ethylbenzamide] | 315 nM
6 | CCc1cc(Nc2nccn3c(-c4ccc(OC)c(F)c4F)cnc23)ccc1C(=O)N[C@H]1CCC[C@H]1NC(=O)[C@@H]1C[C@@H](O)CN1 [Example 53, (2S,4R)-N-((1R, 2S)-2-(4-((3-(2,3-difluoro-4-methoxyphenyl)imidazo[1,2-a]pyrazin-8-yl)amino)-2-ethylbenzamido)cyclopentyl)-4-hydroxypyrrolidine-2-carboxamide] | 987 nM
7 | CCc1cc(Nc2nccn3c(-c4ccc(OC)c(F)c4F)cnc23)ccc1C(=O)NC1CCC(NC(=O)[C@@H](N)CCCNC(=N)N)C1 (mixture of isomers) [Example 46, rac-N-(3-((R)-2-amino-5-guanidinopentanamido)cyclopentyl)-4-((3-(2,3-difluoro-4-methoxyphenyl)imidazo[1,2-a]pyrazin-8-yl)amino)-2-ethylbenzamide bis(2,2,2-trifluoroacetate)] | 754 nM
8 | COc1ccc(-c2cnc3c(Nc4ccc(C(=O)N[C@H]5C[C@H](N)C5)c(C)c4)nccn23)c(F)c1F [Example 57, rac-N-((1r,3r)-3-aminocyclobutyl)-4-((3-(2,3-difluoro-4-methoxyphenyl)imidazo[1,2-a]pyrazin-8-yl)amino)-2-methylbenzamide] | 247 nM
9 | CCc1cc(Nc2nccn3c(-c4ccc(OC)c(F)c4F)cnc23)ccc1C(=O)N[C@@H]1C[C@H]1NC(=O)[C@@H]1C[C@@H](O)CN1 (mixture of isomers) [Example 68, (2S,4R)-N-[(1RS, 2RS)-2-[[4-[[3-(2,3-difluoro-4-methoxy-phenyl)imidazo[1,2-a]pyrazin-8-yl]amino]-2-ethyl-benzoyl]amino]cyclopropyl]-4-hydroxy-pyrrolidine-2-carboxamide] | 140 nM
10 | CCc1cc(Nc2nccn3c(-c4ccc(OC)c(F)c4F)cnc23)ccc1C(=O)N[C@H]1CC[C@H](N)CC1 [Example 42, trans-N-((1r,4r)-4-aminocyclohexyl)-4-((3-(2,3-difluoro-4-methoxyphenyl)imidazo[1,2-a]pyrazin-8-yl)amino)-2-ethylbenzamide] | 260 nM
11 | COc1ccc(-c2cnc3c(Nc4ccc(C(=O)N[C@H]5CC[C@H](N)CC5)c(C)c4)nccn23)c(F)c1F [Example 52, rac-N-((1r,4r)-4-aminocyclohexyl)-4-((3-(2,3-difluoro-4-methoxyphenyl)imidazo[1,2-a]pyrazin-8-yl)amino)-2-methylbenzamide] | 243 nM
12 | COc1ccc(-c2cnc3c(Nc4ccc(C(=O)NC5CCNCC5)c(C)c4)nccn23)c(F)c1F [Example 50, 4-((3-(2,3-difluoro-4-methoxyphenyl)imidazo[1,2-a]pyrazin-8-yl)amino)-2-methyl-N-(piperidin-4-yl)benzamide] | 319 nM
13 | CCc1cc(Nc2nccn3c(-c4ccc(OC)c(F)c4F)cnc23)ccc1C(=O)NC12CC(NC(=O)[C@@H]3C[C@@H](O)CN3)(C1)C2 [Example 70, (2S,4R)-N-(3-(4-((3-(2,3-difluoro-4-methoxyphenyl)imidazo[1,2-a]pyrazin-8-yl)amino)-2-ethylbenzamido)bicyclo[1.1.1]pentan-1-yl)-4-hydroxypyrrolidine-2-carboxamide dihydrochloride] | 197 nM

Further lines, results first:

Row | IC90 | Compound
14 | 236 nM | COc1ccc(-c2cnc3c(Nc4ccc(C(=O)N[C@H]5CCNC5)c(C)c4)nccn23)c(F)c1F [Example 55, (S)-4-((3-(2,3-difluoro-4-methoxyphenyl)imidazo[1,2-a]pyrazin-8-yl)amino)-2-methyl-N (pyrrolidin-3-yl)benzamide]
15 | 40 nM | COc1ccc(-c2cnc3c(Nc4ccc(C(=O)N[C@H]5C[C@@H](NC(=O)[C@@H]6C[C@@H](O)CN6)C5)c(C)c4)nccn23)c(F)c1F [Example 66, (2S,4R)-N-((1s,3R)-3-(4-((3-(2,3-difluoro-4-methoxyphenyl)imidazo[1,2-a]pyrazin-8-yl)amino)-2-methylbenzamido)cyclobutyl)-4-hydroxypyrrolidine-2-carboxamide]
16 | 324 nM | COc1ccc(-c2cnc3c(Nc4ccc(C(=O)NC5CCCNC5)c(C)c4)nccn23)c(F)c1F (stereo not drawn) [Example 51, 4-((3-(2,3-difluoro-4-methoxyphenyl)imidazo[1,2-a]pyrazin-8-yl)amino)-2-methyl-N-(piperidin-3-yl)benzamide]
17 | 268 nM | COc1ccc(-c2cnc3c(Nc4ccc(C(=O)N[C@H]5CC[C@H](NC(=O)[C@@H]6C[C@@H](O)CN6)CC5)c(C)c4)nccn23)c(F)c1F [Example 62, (2S,4R)-N-((1r,4S)-4-(4-((3-(2,3-difluoro-4-methoxyphenyl)imidazo[1,2-a]pyrazin-8-yl)amino)-2-methylbenzamido)cyclohexyI)-4-hydroxypyrrolidine-2-carboxamide]
18 | 55 nM | COc1ccc(-c2cnc3c(Nc4ccc(C(=O)N[C@@H]5CCN(C(=O)[C@@H]6C[C@@H](O)CN6)C5)c(C)c4)nccn23)c(F)c1F [Example 63]
19 | 47 nM | COc1ccc(-c2cnc3c(Nc4ccc(C(=O)NC5CN(C(=O)[C@@H]6C[C@@H](O)CN6)C5)c(C)c4)nccn23)c(F)c1F [Example 65, 4-((3-(2,3-difluoro-4-methoxyphenyl)imidazo[1,2-a]pyrazin-8-yl)amino)-N-(1-((2S,4R)-4-hydroxypyrrolidine-2-carbonyl)azetidin-3-yl)-2-methylbenzamide]
20 | 81 nM | COc1ccc(-c2cnc3c(Nc4ccc(C(=O)N[C@H]5CCN(C(=O)[C@@H]6C[C@@H](O)CN6)C5)c(C)c4)nccn23)c(F)c1F [Example 64, 4-((3-(2,3-difluoro-4-methoxyphenyl)imidazo[1,2-a]pyrazin-8-yl)amino)-N-((S)-1-((2S,4R)-4-hydroxypyrrolidine-2-carbonyI)pyrrolidin-3-yl)-2-methylbenzamide]
21 | 279 nM | COc1ccc(-c2cnc3c(Nc4ccc(C(=O)NC5CNC5)c(C)c4)nccn23)c(F)c1F [Example 56, N-(azetidin-3-yl)-4-((3-(2,3-difluoro-4-methoxyphenyl)imidazo[1,2-a]pyrazin-8-yl)amino)-2-methylbenzamide]
22 | 101 nM | COc1ccc(-c2cnc3c(Nc4ccc(C(=O)N[C@H]5C[C@H](NC(=O)[C@@H]6C[C@@H](O)CN6)C5)c(C)c4)nccn23)c(F)c1F [Example 67, (2S,4R)-N-((1r,3 S)-3-(4-((3-(2,3-difluoro-4-methoxyphenyl)imidazo[1,2-a]pyrazin-8-yl)amino)-2-methylbenzamido)cyclobutyl)-4-hydroxypyrrolidine-2-carboxamide]
23 | 294 nM | COc1ccc(-c2cnc3c(Nc4ccc(C(=O)NC5CCCN(C(=O)[C@@H]6C[C@@H](O)CN6)C5)c(C)c4)nccn23)c(F)c1F (mixture of isomers) [Example 59, rac-4-((3-(2,3-difluoro-4-methoxyphenyl)imidazo[1,2-a]pyrazin-8-yl)amino)-N-(1-((2R,4S)-4-hydroxypyrrolidine-2-carbonyl)piperidin-3-yl)-2-methylbenzamide]

Same assay, conditions: Acinetobacter baumannii, ATCC17961, 16 h, read-out: ATCC17961 IC90

Row | Compound | IC90
24 | CCc1cc(Nc2nccn3c(-c4ccc(OC)c(F)c4F)cnc23)ccc1C(=O)N[C@H]1[C@@H]2CNC[C@@H]21 [Example 72, rac-N-((1R,5 S,6s)-3-azabicyclo[3.1,0]hexan-6-yI)-4-((3-(2,3-difluoro-4-methoxyphenyl)imidazo[1,2-a]pyrazin-8-yl)amino)-2-ethylbenzamide hydrochloride] | 295 nM
